Source: patent US9833497B2, “Human originated EGF domain proteins and use of the same” (CHENGDU SOURCEBIO LIMITED-LIABILITY COMPANY, priority 2013, dated 2017)

What was measured:
Type in all cases: cell-based
Moraxella catarrhalis = experiment: MIC against Gram-negative bacteria: Moraxella catarrhalis; conditions: for MIC: M. catarrhalis, 10 h cultivation at 37° C.
In short: (§1)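 MIC, the lowest recombinant protein concentration giving no bacterial growth, found by two-fold serial dilution of human EGF-domain proteins in triplicate. Inoculum 5×10^5 CFU/mL in LB from cultures at McFarland 0.5; plates incubated at 37° C, 175 rpm shaking.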

E. coli BL21 = experiment: MIC against Gram-negative bacteria: E. coli BL21; conditions: for MIC: 10 h cultivation at 37° C.
In short: as §1

Proteus vulgaris = experiment: MIC against Gram-negative bacteria: Proteus vulgaris; conditions: for MIC: P. vulgaris, 10 h cultivation at 37° C.
In short: as §1

Aeromonas hydrophila = experiment: MIC against Gram-negative bacteria: Aeromonas hydrophila; conditions: for MIC: A. hydrophila, 10 h cultivation at 37° C.
In short: as §1

Klebsiella pneumonia = experiment: MIC against Gram-negative bacteria: Klebsiella pneumonia; conditions: for MIC: K. pneumonia, 10 h cultivation at 37° C.
In short: as §1

Proteus mirabilis = experiment: MIC against Gram-negative bacteria: Proteus mirabilis; conditions: for MIC: P. mirabilis, 10 h cultivation at 37° C.
In short: as §1

Enterobacter cloacae = experiment: MIC against Gram-negative bacteria: Enterobacter cloacae; conditions: for MIC: E. cloacae, 10 h cultivation at 37° C.
In short: as §1

Pseudomonas aeruginosa = experiment: MIC against Gram-negative bacteria: Pseudomonas aeruginosa; conditions: for MIC: P. aeruginosa, 10 h cultivation at 37° C.
In short: as §1

Citrobacter diversus = experiment: MIC against Gram-negative bacteria: Citrobacter diversus; conditions: for MIC: C. diversus, 10 h cultivation at 37° C.
In short: as §1

Serratia marcescens = experiment: MIC against Gram-negative bacteria: Serratia marcescens; conditions: for MIC: S. marcescens, 10 h cultivation at 37° C.
In short: as §1

E. coli DH5α = experiment: Antibacterial activity: MIC and growth curve against E. coli DH5α in 96-well plate; conditions: minimal inhibitory concentration against E. coli DH5α; 96-well plate, 5×10^5 CFU/mL, 37° C., judged after 8 h
In short: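 Log-phase DH5α (OD600 about 0.5, 37° C, 185 rpm in LB) was pelleted, resuspended in fresh LB and seeded at 5×10^5 CFU/mL with recombinant protein at 50, 25 and 12.5 μg/mL (two-fold series), in triplicate. Plates were shaken at 175 rpm, 37° C, and OD600 was read every 30 min. MIC was the lowest concentration with no growth.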

[1] = Moraxella catarrhalis, 96-well plate, 5×10^5 CFU/mL, 37° C., 10 h
[2] = E. coli BL21, 96-well plate, 5×10^5 CFU/mL, 37° C., 10 h
[3] = Proteus vulgaris, 96-well plate, 5×10^5 CFU/mL, 37° C., 10 h
[4] = Aeromonas hydrophila, 96-well plate, 5×10^5 CFU/mL, 37° C., 10 h
[5] = Klebsiella pneumonia, 96-well plate, 5×10^5 CFU/mL, 37° C., 10 h
[6] = Proteus mirabilis, 96-well plate, 5×10^5 CFU/mL, 37° C., 10 h
[7] = Enterobacter cloacae, 96-well plate, 5×10^5 CFU/mL, 37° C., 10 h
[8] = Pseudomonas aeruginosa, 96-well plate, 5×10^5 CFU/mL, 37° C., 10 h
[9] = Citrobacter diversus, 96-well plate, 5×10^5 CFU/mL, 37° C., 10 h
[10] = Serratia marcescens, 96-well plate, 5×10^5 CFU/mL, 37° C., 10 h
[11] = 96-well plate, 5×10^5 CFU/mL, 37° C., 10 h

## PRT977 (EVDPCLAQPCQHGGTCRGYMGGYMCECLPGYNGDNCE; listed as Homo sapiens)
Moraxella catarrhalis
  MIC: 25 µg/mL
E. coli BL21; E. coli BL21
  MIC: 50 µg/mL
Proteus vulgaris
  MIC: 50 µg/mL
Aeromonas hydrophila
  MIC: 25 µg/mL
Klebsiella pneumonia
  MIC: 50 µg/mL
Proteus mirabilis
  MIC: 12.5 µg/mL
Enterobacter cloacae
  MIC: 12.5 µg/mL
Pseudomonas aeruginosa
  MIC: 12.5 µg/mL
Citrobacter diversus
  MIC: 50 µg/mL
Serratia marcescens
  MIC: 25 µg/mL
E. coli DH5α
  MIC: 12.5 µg/mL

## PRT1322 (PIDPCRAGNGGCHGLATCRAVGGGQRVCTCPPGFGGDGFS; listed as Homo sapiens)
Moraxella catarrhalis; [1]
  MIC against M. catarrhalis: 12.5 µg/mL
E. coli BL21; [2]
  MIC against E. coli BL21: 25 µg/mL
Proteus vulgaris; [3]
  MIC against P. vulgaris: 25 µg/mL
Aeromonas hydrophila; [4]
  MIC against A. hydrophila: 12.5 µg/mL
Klebsiella pneumonia; [5]
  MIC against K. pneumonia: 25 µg/mL
Proteus mirabilis; [6]
  MIC against P. mirabilis: 12.5 µg/mL
Enterobacter cloacae; [7]
  MIC against E. cloacae: 50 µg/mL
Pseudomonas aeruginosa; [8]
  MIC against P. aeruginosa: 12.5 µg/mL
Citrobacter diversus; [9]
  MIC against C. diversus: 50 µg/mL
Serratia marcescens; [10]
  MIC against S. marcescens: 12.5 µg/mL
E. coli DH5α
  MIC: 12.5 µg/mL

## PRT601 (CDCDIGGAYSNVCSPKNGQCECRPHVTGRSCSEPAPGYFFAPLNFYL; listed as Homo sapiens)
Moraxella catarrhalis; [11]
  MIC M. catarrhalis: 50 µg/mL
E. coli BL21; [11]
  MIC E. coli BL21: 25 µg/mL
Proteus vulgaris; [11]
  MIC P. vulgaris: 50 µg/mL
Aeromonas hydrophila; [11]
  MIC A. hydrophila: 25 µg/mL
Klebsiella pneumonia; [11]
  MIC K. pneumonia: 25 µg/mL
Proteus mirabilis; [11]
  MIC P. mirabilis: 100 µg/mL
Enterobacter cloacae; [11]
  MIC E. cloacae: 50 µg/mL
Pseudomonas aeruginosa; [11]
  MIC P. aeruginosa: 12.5 µg/mL
Citrobacter diversus; [11]
  MIC C. diversus: 12.5 µg/mL
Serratia marcescens; [11]
  MIC S. marcescens: 12.5 µg/mL
E. coli DH5α
  MIC: 50 µg/mL

## PRT925 (DINECHSDPCQNDATCLDKIGGFTCLCMPGFKGVHCE; listed as Homo sapiens)
Moraxella catarrhalis
  MIC: 12.5 µg/mL
E. coli BL21; E. coli BL21
  MIC: 25 µg/mL
Proteus vulgaris
  MIC: 50 µg/mL
Aeromonas hydrophila
  MIC: 50 µg/mL
Klebsiella pneumonia
  MIC: 12.5 µg/mL
Proteus mirabilis
  MIC: 25 µg/mL
Enterobacter cloacae
  MIC: 25 µg/mL
Pseudomonas aeruginosa
  MIC: 50 µg/mL
Citrobacter diversus
  MIC: 25 µg/mL
Serratia marcescens
  MIC: 12.5 µg/mL
E. coli DH5α
  MIC: 12.5 µg/mL

## PRT1256 (DVDECQDNNGGCQQICVNAMGSYECQCHSGFFLSDNQ; listed as Homo sapiens)
Moraxella catarrhalis; [1]
  MIC against M. catarrhalis: 50 µg/mL
E. coli BL21; [2]
  MIC against E. coli BL21: 12.5 µg/mL
Proteus vulgaris; [3]
  MIC against P. vulgaris: 50 µg/mL
Aeromonas hydrophila; [4]
  MIC against A. hydrophila: 50 µg/mL
Klebsiella pneumonia; [5]
  MIC against K. pneumonia: 12.5 µg/mL
Proteus mirabilis; [6]
  MIC against P. mirabilis: 12.5 µg/mL
Enterobacter cloacae; [7]
  MIC against E. cloacae: 25 µg/mL
Pseudomonas aeruginosa; [8]
  MIC against P. aeruginosa: 25 µg/mL
Citrobacter diversus; [9]
  MIC against C. diversus: 12.5 µg/mL
Serratia marcescens; [10]
  MIC against S. marcescens: 25 µg/mL
E. coli DH5α
  MIC: 25 µg/mL

## PRT1214 (GRENCTFAPCLEGGTCILSPKGASCNCPHPYTGDRCE; listed as Homo sapiens)
Moraxella catarrhalis; [1]
  MIC against M. catarrhalis: 25 µg/mL
E. coli BL21; [2]
  MIC against E. coli BL21: 12.5 µg/mL
Proteus vulgaris; [3]
  MIC against P. vulgaris: 12.5 µg/mL
Aeromonas hydrophila; [4]
  MIC against A. hydrophila: 50 µg/mL
Klebsiella pneumonia; [5]
  MIC against K. pneumonia: 25 µg/mL
Proteus mirabilis; [6]
  MIC against P. mirabilis: 50 µg/mL
Enterobacter cloacae; [7]
  MIC against E. cloacae: 12.5 µg/mL
Pseudomonas aeruginosa; [8]
  MIC against P. aeruginosa: 50 µg/mL
Citrobacter diversus; [9]
  MIC against C. diversus: 12.5 µg/mL
Serratia marcescens; [10]
  MIC against S. marcescens: 25 µg/mL
E. coli DH5α
  MIC: 25 µg/mL

## PRT449 (FLCRCHQGYELHRDGFSCSDIDE; listed as Homo sapiens)
Moraxella catarrhalis; [11]
  MIC against M. catarrhalis: 25 µg/mL
E. coli BL21; [11]
  MIC against E. coli BL21: 12.5 µg/mL
Proteus vulgaris; [11]
  MIC against P. vulgaris: 12.5 µg/mL
Aeromonas hydrophila; [11]
  MIC against A. hydrophila: 25 µg/mL
Klebsiella pneumonia; [11]
  MIC against K. pneumonia: 12.5 µg/mL
Proteus mirabilis; [11]
  MIC against P. mirabilis: 50 µg/mL
Enterobacter cloacae; [11]
  MIC against E. cloacae: 50 µg/mL
Pseudomonas aeruginosa; [11]
  MIC against P. aeruginosa: 50 µg/mL
Citrobacter diversus; [11]
  MIC against C. diversus: 12.5 µg/mL
Serratia marcescens; [11]
  MIC against S. marcescens: 50 µg/mL
E. coli DH5α
  MIC: 50 µg/mL

## PRT446 (DVDECVGLQPVCPQGTTCINTGGSFQCVSPECPEGSGNVSYVKTSPFQCE; listed as Homo sapiens)
Moraxella catarrhalis; [11]
  MIC against M. catarrhalis: 50 µg/mL
E. coli BL21; [11]
  MIC against E. coli BL21: 12.5 µg/mL
Proteus vulgaris; [11]
  MIC against P. vulgaris: 12.5 µg/mL
Aeromonas hydrophila; [11]
  MIC against A. hydrophila: 50 µg/mL
Klebsiella pneumonia; [11]
  MIC against K. pneumonia: 50 µg/mL
Proteus mirabilis; [11]
  MIC against P. mirabilis: 25 µg/mL
Enterobacter cloacae; [11]
  MIC against E. cloacae: 12.5 µg/mL
Pseudomonas aeruginosa; [11]
  MIC against P. aeruginosa: 12.5 µg/mL
Citrobacter diversus; [11]
  MIC against C. diversus: 12.5 µg/mL
Serratia marcescens; [11]
  MIC against S. marcescens: 25 µg/mL
E. coli DH5α
  MIC: 12.5 µg/mL
